Results reported in US20050107289A1, “Anti-microbial peptides and compositions” (priority 2001, published 2005).
Read-outs that look alike come from different tables or passages of the source. Non-standard residues stand in square brackets, D forms with d. Residues, ends and D or L forms follow the SMILES beside them. NMeL = CN[C@@H](CC(C)C)C(=O)O

Assays:
[1] = system: Streptococcus pneumoniae (ATCC 6301); type: cell-based
Protocol: (§1) The antimicrobial activity of the peptides was determined using a broth dilution assay essentially as descried in the guidelines of the National Committee for […] (NCCLS) [National Committee for Clinical Laboratory Standards. Methods for dilution antimicrobial susceptibility tests for bacteria that grow aerobically. Fourth edition. Approved Standard (1997). Document M7-A4. […] The microdilution method has the advantages of requiring less amount of peptide for each assay and the possibility of multiple simultaneous inoculations and was used in most studies. Several of the strains of bacteria tested are further described in Table 3.
(§2) Preparation of peptide solutions. Stock peptide solutions were prepared in 5% DMSO in aq. sucrose (9%). Determination of peptide concentrations was done by quantitative HPLC analysis using known concentrations of internal standards and/or by measuring UV absorption of tryptophane-containing peptide solutions in H2O (λ=280 εTrp: 5690). Serial 2-fold dilutions were made in the above DMSO/aq. sucrose (9%) mixture with concentrations ranging approximately 400-2 μg/ml and aliquots were dispensed in test tubes (100 μl) for the macrodilution test or in microtiter plates (20 μl) for the microdilution assays.
(§3) Inoculum preparation. Overnight cultures of different microorganisms grown in suitable media were diluted 4000 times to an approximate inoculum size of 2.5×10^5 cfu/ml.
(§4) Macrodilution method. Macrodilution methods were performed using procedures similar to those described in the National Committee for Clinical Laboratory Standards. Methods for dilution antimicrobial susceptibility tests for bacteria that grow aerobically. Fourth edition. Approved Standard (1997). Document M7-A4. (NCCLS,Villanova, Pa., 1997). Two ml aliquots of the above inoculum were dispensed to test tubes containing different peptide solutions.
(§5) Microdilution method. Microdilution methods were performed using procedures similar to those described in the National Committee for Clinical Laboratory Standards. Methods for dilution antimicrobial susceptibility tests for bacteria that grow aerobically. Fourth edition. Approved Standard (1997). Document M7-A4.

[2] = system: Bacillus cereus ATCC 11778; type: cell-based
Protocol: as §1, §2, §3, §4, §5

[3] = system: S. aureus (MRSA) ATCC 33591; type: cell-based, Staphylococcus aureus; conditions: for MRSA MIC / S. aureus (MRSA) MIC: ATCC 33591; for MRSA (in vitro activity): Table 9, media a: anti-microbial media-3 (AM-3)
Procedure, shortened: (§6)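 MIC read from NCCLS-style broth dilution. Peptide concentrations were set by quantitative HPLC or Trp UV absorbance at 280 nm, then serially halved from about 400 to 2 μg/ml in 5% DMSO/9% sucrose. Inoculum: approximately 2.5×10^5 cfu/ml.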

[4] = system: vancomycin-resistant Enterococus faecalis (VRE)(ATCC 51575); type: cell-based, Enterococcus faecalis; set-up: key to VRE (in vitro activity): peptide concentration in μg/ml (broth dilution assay); conditions: for VRE MIC: ATCC 51575; for VRE (in vitro activity): Table 9, media a: AM-3
Procedure, shortened: as §6

[5] = system: E. coli JM109(DE3); type: cell-based, Escherichia coli; conditions: JM109
Protocol: as §1, §2, §3, §4, §5

[6] = system: murine red blood cells; test: Red blood cell hemolysis; type: cell-based, mouse; conditions: for Hemolysis HD50: red cells of murine
Procedure, shortened: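 Washed murine erythrocytes at 5% in saline with 10% FBS were exposed to serial peptide dilutions for 30 min at 37° C. Supernatant absorbance at 560 nm was read, with saline as 0% and 1% Triton X-100 as 100% hemolysis.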

Structure (SMILES)	S. pneum. MIC [1]	B. cerius MIC [2]	MRSA MIC [3]	VRE MIC [4]	E. coli MIC [5]	S. aureus (MRSA) MIC [3]	MRSA MIC ([3]; Table 10)	MRSA (in vitro activity) [3]	RBC Hemolysis (HD50) [6]	VRE (in vitro activity) [4]	Hemolysis HD50 [6]
CC(C)C[C@H]1NC(=O)[C@H](CCCCN)NC(=O)[C@@H](CCCNC(=N)N)NC(=O)[C@H](Cc2c[nH]c3ccccc23)NC(=O)[C@@H](CC(C)C)NC(=O)[C@H](Cc2c[nH]c3ccccc23)NC1=O [SEQ ID NO:141, [RKLWLW]] (cyclo([dR]K[dL]W[dL]W))	20 µg/mL	13 µg/mL	25 µg/mL	25 µg/mL	–	–	–	–	–	–	–
CC(C)C[C@H]1NC(=O)[C@H](Cc2c[nH]c3ccccc23)NC(=O)[C@@H](CCCCN)NC(=O)[C@H](CCCNC(=N)N)NC(=O)[C@@H](CCCNC(=N)N)NC(=O)[C@H](Cc2c[nH]c3ccccc23)NC(=O)[C@@H](CC(C)C)NC(=O)[C@H](Cc2c[nH]cn2)NC1=O [SEQ ID NO:110, [RRKWLHLW]] (cyclo([dR]R[dK]W[dL]H[dL]W))	20 µg/mL	20 µg/mL	25 µg/mL	40 µg/mL	15 µg/mL	–	–	25	100	40	100 µg/mL
CC(C)C[C@H]1NC(=O)[C@H](Cc2c[nH]c3ccccc23)NC(=O)[C@@H](Cc2c[nH]cn2)NC(=O)[C@H](Cc2c[nH]cn2)NC(=O)[C@@H](CO)NC(=O)[C@H](Cc2c[nH]c3ccccc23)NC(=O)[C@@H](CC(C)C)NC(=O)[C@H](Cc2c[nH]c3ccccc23)NC1=O [SEQ ID NO:15, SHHWLWLW] (cyclo([dS]H[dH]W[dL]W[dL]W))	40 µg/mL	11 µg/mL	30 µg/mL	50 µg/mL	100 µg/mL	20 µg/mL	–	30	20	50	–
CC(=O)N[C@H](CCCCN)C(=O)N[C@@H](CCCCN)C(=O)N[C@H](CCCCN)C(=O)N[C@@H](Cc1c[nH]c2ccccc12)C(=O)N[C@H](CC(C)C)C(=O)N[C@@H](Cc1c[nH]c2ccccc12)C(=O)N[C@H](CC(C)C)C(=O)N[C@H](Cc1c[nH]c2ccccc12)C(N)=O [SEQ ID NO:25, Ac-KKKWLWLW-CONH2] (Ac-[dK]K[dK]W[dL]W[dL][dW]-NH2)	80 µg/mL	75 µg/mL	100 µg/mL	100 µg/mL	20 µg/mL	80 µg/mL	–	–	–	–	100 µg/mL
CC(C)C[C@H]1C(=O)N[C@H](Cc2c[nH]c3ccccc23)C(=O)N(C)[C@@H](CC(C)C)C(=O)N[C@H](Cc2c[nH]c3ccccc23)C(=O)N[C@@H](CCCCN)C(=O)N[C@H](CCC(N)=O)C(=O)N[C@@H](CCCNC(=N)N)C(=O)N[C@H](Cc2c[nH]c3ccccc23)C(=O)N1C [SEQ ID NO:140, c[KQRW^MeLW^MeLW]] (cyclo(K[dQ]R[dW][NMeL][dW][NMeL][dW]))	10 µg/mL	8 µg/mL	10 µg/mL	100 µg/mL	–	–	–	–	–	–	–
CC(C)C[C@@H]1NC(=O)[C@@H](Cc2c[nH]c3ccccc23)NC(=O)[C@H](CCCNC(=N)N)NC(=O)[C@@H](CCCNC(=N)N)NC(=O)[C@H](CCCNC(=N)N)NC(=O)[C@@H](Cc2c[nH]c3ccccc23)NC(=O)[C@H](CC(C)C)NC(=O)[C@@H](Cc2c[nH]c3ccccc23)NC1=O [SEQ ID NO:133, [RRRWLWLW]] (cyclo(R[dR]R[dW]L[dW]L[dW]))	5 µg/mL	10 µg/mL	10 µg/mL	–	35 µg/mL	–	–	–	–	–	35 µg/mL
CC(C)C[C@H]1NC(=O)[C@H](Cc2c[nH]c3ccccc23)NC(=O)[C@@H](CCCNC(=N)N)NC(=O)[C@H](CCC(N)=O)NC(=O)[C@@H](CCCNC(=N)N)NC(=O)[C@H](Cc2c[nH]c3ccccc23)NC(=O)[C@@H](CC(C)C)NC(=O)[C@H](Cc2c[nH]c3ccccc23)NC1=O [SEQ ID NO:10, RQRWLWLW] (cyclo([dR]Q[dR]W[dL]W[dL]W))	4 µg/mL	< 1 µg/mL	10 µg/mL	10 µg/mL	–	18 µg/mL	–	10	25	10	–
CC(C)C[C@@H](NC(=O)[C@H](Cc1c[nH]c2ccccc12)NC(=O)[C@@H](CC(C)C)NC(=O)[C@H](Cc1c[nH]c2ccccc12)NC(=O)[C@@H](CCCCN)NC(=O)[C@H](CCCCN)NC(=O)[C@@H](CCCCN)NC(=O)[C@@H](N)Cc1c[nH]c2ccccc12)C(=O)O [SEQ ID NO:144, H-WKKKWLWL-OH] (H-W[dK]K[dK]W[dL]W[dL]-OH)	100 µg/mL	340 µg/mL	60 µg/mL	100 µg/mL	–	–	–	–	–	–	–
CC(C)C[C@H]1NC(=O)[C@H](Cc2c[nH]c3ccccc23)NC(=O)[C@@H](CCCNC(=N)N)NC(=O)[C@H](CCCNC(=N)N)NC(=O)[C@@H](CCCNC(=N)N)NC(=O)[C@H](Cc2c[nH]c3ccccc23)NC(=O)[C@@H](CC(C)C)NC(=O)[C@H](Cc2c[nH]c3ccccc23)NC1=O [SEQ ID NO:20, RRRWLWLW] (cyclo([dR]R[dR]W[dL]W[dL]W))	–	–	–	–	50 µg/mL	10 µg/mL	–	–	–	–	35 µg/mL

More lines, main results first:

S. pneum. MIC [1]	B. cerius MIC [2]	MRSA MIC [3]	VRE MIC [4]	E. coli MIC [5]	S. aureus (MRSA) MIC [3]	MRSA MIC ([3]; Table 10)	Structure (SMILES)	MRSA (in vitro activity) [3]	RBC Hemolysis (HD50) [6]	VRE (in vitro activity) [4]	Hemolysis HD50 [6]
–	6 µg/mL	15 µg/mL	30 µg/mL	100 µg/mL	15 µg/mL	–	CC(C)C[C@H]1NC(=O)[C@H](Cc2c[nH]c3ccccc23)NC(=O)[C@@H](Cc2c[nH]cn2)NC(=O)[C@H](CCCCN)NC(=O)[C@@H](CO)NC(=O)[C@H](Cc2c[nH]c3ccccc23)NC(=O)[C@@H](CC(C)C)NC(=O)[C@H](Cc2c[nH]c3ccccc23)NC1=O [SEQ ID NO:14, cyclo-(D-Ser-Lys-D-His-Trp-D-Leu-Trp-D-Leu-Trp)] (cyclo(K[dH]W[dL]W[dL]W[dS]))	15	20	30	–
50 µg/mL	50 µg/mL	–	80 µg/mL	100 µg/mL	–	ppt	CC(C)C[C@H]1NC(=O)[C@H](CCCCN)NC(=O)[C@@H](CC(C)C)NC(=O)[C@H](Cc2c[nH]c3ccccc23)NC(=O)[C@@H](CC(C)C)NC(=O)[C@H](Cc2c[nH]c3ccccc23)NC(=O)[C@@H](CC(C)C)NC(=O)[C@H](Cc2c[nH]c3ccccc23)NC1=O [SEQ ID NO:3, cyclo[-Lys-D-Leu-(Trp-D-Leu)3]] (cyclo(K[dL]W[dL]W[dL]W[dL]))	–	–	–	20 µg/mL
100 µg/mL	> 140 µg/mL	100 µg/mL	100 µg/mL	–	–	–	CC(C)C[C@H]1NC(=O)[C@H](CCC(=O)O)NC(=O)[C@@H](CCCCN)NC(=O)[C@H](Cc2c[nH]c3ccccc23)NC(=O)[C@@H](CC(C)C)NC(=O)[C@H](Cc2c[nH]c3ccccc23)NC(=O)[C@@H](CC(C)C)NC(=O)[C@H](Cc2c[nH]c3ccccc23)NC1=O [SEQ ID NO:143, [KELWLWLW]] (cyclo([dK]E[dL]W[dL]W[dL]W))	–	–	–	–
8 µg/mL	7 µg/mL	20 µg/mL	20 µg/mL	100 µg/mL	45 µg/mL	–	CC(C)C[C@H]1NC(=O)[C@H](Cc2c[nH]c3ccccc23)NC(=O)[C@@H](CCCCN)NC(=O)[C@H](CCC(N)=O)NC(=O)[C@@H](CCCCN)NC(=O)[C@H](Cc2c[nH]c3ccccc23)NC(=O)[C@@H](CC(C)C)NC(=O)[C@H](Cc2c[nH]c3ccccc23)NC1=O [SEQ ID NO:11, cyclo-[Gln-D-Lys-(Trp-D-Leu)2-Trp-D-Lys-]] (cyclo([dK]Q[dK]W[dL]W[dL]W))	–	–	–	–
